US10989719B2, “Methods for treating spinocerebellar ataxia type I using RPA1” (National University Corporation Tokyo Medical and Dental …, priority 2013, dated 2021)
“Also recorded” adds a separate entry of the source.

Test system: OK6>SCA1 flies
Test: Chemical therapy on hSCA1 Drosophila: lifespan on medium supplemented with CHK1 inhibitor
Format: in vivo
Details: adult flies
Experimental: FIG. 29 is a graph showing the results of a lifespan analysis of OK6>SCA1 flies fed on media supplemented with a CHK1 inhibitor (CHIR-124). The statistical analysis of the average values of the lifespan was performed by log-rank test.
A CHK1-specific inhibitor, CHIR-124 (manufactured by AXON MEDCHEM), was dissolved at 5 mg/mL in 1N hydrogen chloride and diluted to multiple concentrations with 0.05 N solution. Note that the medium used here was a 1:1 mixture of Instant Drosophila medium D7670 (manufactured by Sigma Aldrich) and Formula 4-24 Instant Drosophila medium (manufactured by Calolina). As a control, a medium to which an equal amount of 0.05 N hydrogen chloride solution was added was also prepared.
In this respect, whether or not the inhibition of a signal mediated by CHK1 mitigates the lifespan shortening in the SCA1 fly model was examined. Specifically, a CHK1-specific inhibitor (CHIR-124) was used. This inhibitor was added to feed (corn-meal medium) at multiple concentrations, and adult flies were fed on the feed. As a result, the lifespan of OK6>SCA1 was improved at 0.00016 mg/mL and 0.02 mg/mL (see FIG. 29). In addition, the improvement effect was more remarkable in an example where the inhibitor was given at a higher concentration. The lifespan of the flies treated with CHIR-124 at 0.02 mg/mL was elongated by 35% (see FIG. 29).

Compound: O=c1[nH]c2ccc(Cl)cc2c(N[C@@H]2CN3CCC2CC3)c1-c1nc2ccccc2[nH]1 [CHIR-124, 4-[((3S)-1-azabicyclo[2.2.2]oct-3-yl)amino]-3-(1H-benzimidazol-2-yl)-6-chloroquinolin-2(1H)-one]
- lifespan of OK6>SCA1 (0.00016 mg/mL in feed): improved
- lifespan elongation (0.02 mg/mL in feed): 35%
- lifespan of OK6>SCA1 (0.02 mg/mL in feed): ameliorated the lifespan-shortening; also recorded: improved
